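Five compound concentrations were applied to cells in 96-well plates for 48 hours; endpoints were derived by simple linear interpolation of the resulting dose-response curve. GI50: concentration for 50% inhibition of growth.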 The source made the active and inactive calls. Cut-off read from the data, not from the text of the source: active = GI50 up to about 1.1 µM and inactive = higher.
Experiments:
Assay in all cases: NCI tumour cell line growth inhibition, 48 h
[1] = test system: HOP-62
[2] = test system: MDA-MB-435
[3] = test system: HT-29
[4] = test system: IGROV-1
[5] = test system: RPMI-8226
[6] = test system: A549
[7] = test system: SF-295
[8] = test system: SR
[9] = test system: RXF 631
[10] = test system: HCC 2998
[11] = test system: SN12C
[12] = test system: SNB-19
[13] = test system: MOLT-4
[14] = test system: K562
[15] = test system: SK-MEL-2
[16] = test system: NCI-H226
[17] = test system: SF-268
[18] = test system: T47D
[19] = test system: SW-620
[20] = test system: DMS-114
[21] = test system: MDA-MB-231
[22] = test system: DLD-1
[23] = test system: OVCAR-5
[24] = test system: COLO 205
[25] = test system: OVCAR-8
[26] = test system: CAKI-1
[27] = test system: SK-MEL-28
[28] = test system: NCI-H522
[29] = test system: SK-MEL-5
[30] = test system: SNB-75
[31] = test system: SF-539
[32] = test system: NCI-H460
[33] = test system: BT-549
[34] = test system: HOP-92
[35] = test system: HOP-18
[36] = test system: MDA-N
[37] = test system: LXFL 529
[38] = test system: HL-60
[39] = test system: UACC-62
[40] = test system: ACHN
[41] = test system: CCRF-CEM
[42] = test system: HCT-15
[43] = test system: MCF7
[44] = test system: HCT-116
[45] = test system: DU-145
[46] = test system: NCI-H23
[47] = test system: 786-0
[48] = test system: XF498
[49] = test system: OVCAR-4
[50] = test system: M14
[51] = test system: SK-OV-3
[52] = test system: OVCAR-3
[53] = test system: PC-3
[54] = test system: LOX IMVI
[55] = test system: NCI/ADR-RES
[56] = test system: Malme-3M
[57] = test system: SNB-78
[58] = test system: U-251
[59] = test system: UO-31
[60] = test system: KM12
[61] = test system: DMS-273
[62] = test system: TK-10
[63] = test system: RXF 393
[64] = test system: KM-20L2
[65] = test system: UACC-257
[66] = test system: A498
[67] = test system: EKVX
[68] = test system: Hs-578T
[69] = test system: M19-MEL

Measured: GI50

O=C1c2ccccc2C(=O)c2c(/C=C\N3CCCCC3)ccnc21
active: [2] 327 nM | [14] 551 nM | [19] 839 nM | [20] 813 nM | [27] 1110 nM | [29] 420 nM | [33] 889 nM | [36] 383 nM | [37] 377 nM | [39] 659 nM | [43] 869 nM | [44] 1060 nM | [46] 644 nM | [50] 578 nM | [53] 879 nM | [54] 337 nM | [56] 661 nM | [65] 1020 nM | [69] 237 nM
inactive: [1] 3810 nM | [3] 5570 nM | [4] 11100 nM | [5] 2290 nM | [6] 2120 nM | [7] 2470 nM | [8] 8360 nM | [9] 8220 nM | [10] 2720 nM | [11] 1400 nM | [12] 4910 nM | [13] 6840 nM | [15] 3720 nM | [16] 2700 nM | [17] 12000 nM | [18] 2970 nM | [21] 19100 nM | [22] 1390 nM | [23] 5380 nM | [24] 3510 nM | [25] 2150 nM | [26] 16900 nM | [28] 2550 nM | [30] 2010 nM | [31] 3120 nM | [32] 1300 nM | [34] 9180 nM | [35] 1250 nM | [38] 3010 nM | [40] 5690 nM | [41] 3780 nM | [45] 1440 nM | [47] 6350 nM | [48] 11100 nM | [49] 9570 nM | [51] 15700 nM | [52] 1750 nM | [55] 3600 nM | [57] 18700 nM | [58] 2990 nM | [59] 2010 nM | [60] 3970 nM | [61] 2300 nM | [62] 15200 nM | [63] 8530 nM | [64] 15500 nM | [66] 8990 nM | [67] 15200 nM | [68] 1230 nM
582 nM: [42]

Source: ChEMBL document CHEMBL1201862, “PubChem BioAssay data set” (2004)
